# Results from US11452758B2, “Antimicrobial peptide derived from LL37 peptide and uses thereof” (INDUSTRY-ACADEMIC COOPERATION FOUNDATION, CHOSUN UNIVERSITY, priority 2018, dated 2022).
# Where two headings read alike, the source gives them in different places. Where a SMILES comes first, the peptide text is derived from it.
# How the values were obtained:
# [1] = system: S. aureus ATCC 25923; type: cell-based, Staphylococcus aureus
# Excerpt: (§1) To compare the antimicrobial activity among the peptides produced by the method of Example 1, the inventors of the present invention measured the minimal growth inhibitory concentration (MIC), which is minimum concentration of the peptide not allowing any […] of bacterial cells.
# (§2) Specifically, the bacterial strains described in the following Table 2 were purchased and cultured to a mid-log phase in MHB (Mueller Hinton Broth) medium. Then, after dilution to bacterial cell concentration of 2×10^5 cells/50 μl, the cells were inoculated to a microtiter plate (NUNC, USA). Thereafter, LL37-1, LL37-2, LL37-3 or LL37-4 peptide which has been synthesized in Example 1 above was subjected to serial dilution, ½ times for each, in a 96-well plate. After adding the peptides in an amount of 50 μl to the cell plate, the cells were cultured for 18 hours at 37° C. By using a microtiter plate reader (Merck Elisa reader, Germany), the absorbance was measured at a wavelength of 600 nm to determine the MIC value of each bacterial strain. As a control group, LL37 as a mother peptide was used and subjected to the same process as above to determine the MIC value of each strain.
# [2] = system: L. monocytogenes KCTC 3710; type: cell-based, Listeria monocytogenes
# Excerpt: as §1, §2
# [3] = system: A. baumannii #10; type: cell-based, Acinetobacter baumannii
# Excerpt: as §1, §2
# [4] = system: A. baumannii #11; type: cell-based, Acinetobacter baumannii
# Excerpt: as §1, §2
# [5] = system: A. baumannii #12; type: cell-based, Acinetobacter baumannii
# Excerpt: as §1, §2
# [6] = system: A. baumannii #13; type: cell-based, Acinetobacter baumannii
# Excerpt: as §1, §2
# [7] = system: A. baumannii #19; type: cell-based, Acinetobacter baumannii
# Excerpt: as §1, §2
# [8] = system: A. baumannii #2; type: cell-based, Acinetobacter baumannii
# Excerpt: as §1, §2
# [9] = system: A. baumannii #3; type: cell-based, Acinetobacter baumannii
# Excerpt: as §1, §2
# [10] = system: A. baumannii #4; type: cell-based, Acinetobacter baumannii
# Excerpt: as §1, §2
# [11] = system: A. baumannii #5; type: cell-based, Acinetobacter baumannii
# Excerpt: as §1, §2
# [12] = system: A. baumannii #8; type: cell-based, Acinetobacter baumannii
# Excerpt: as §1, §2
# [13] = system: A. baumannii #9; type: cell-based, Acinetobacter baumannii
# Excerpt: as §1, §2
# [14] = system: A. baumannii KCTC 2508; type: cell-based, Acinetobacter baumannii
# Excerpt: as §1, §2
# [15] = system: E. coli ATCC 25922; type: cell-based, Escherichia coli
# Excerpt: as §1, §2
# [16] = system: P. aeruginosa ATCC 27853; type: cell-based, Pseudomonas aeruginosa
# Excerpt: as §1, §2
# [17] = system: A. baumannii #10; experiment: Antibiofilm activity, Crystal violet staining; type: cell-based, Acinetobacter baumannii; settings: 24 hours
# Method: (§3) To compare the antimicrobial activity among the peptides produced by the method of Example 1, the inventors of the present invention measured the biofilm inhibitory concentration value of the peptide for not allowing any dissociation of bacterial cells.
# (§4) Specifically, among the bacterial strains described in the above Table 2, bacteria showing the most favorable biofilm forming were cultured to a mid-log phase in a medium with suitable composition. Then, after dilution to bacterial cell concentration of 1×10^6 cells/50 μl, the cells were inoculated to a microtiter plate. Thereafter, LL37, LL37-1, LL37-2, LL37-3 or LL37-4 peptide which has been synthesized in Example 1 above was diluted, 1/10 times for each, with 10 mM phosphate buffered physiological saline (PBS) in a 96-well plate. After adding the peptide (50 μl) to each well of the plate, the cells were cultured for 24 hours at 37° C. After removing the supernatant completely, the cells were fixed with 100% methanol for 15 minutes and stained for 1 hour with Crystal violet staining solution followed by rinsing for 3 times. Then, after dissolving in 95% ethanol, the absorbance was measured at a wavelength of 595 nm by using a microtiter plate reader to determine the biofilm minimal inhibitory concentration value of each bacterial strain.
# [18] = system: A. baumannii #5; experiment: Antibiofilm activity, Crystal violet staining; type: cell-based, Acinetobacter baumannii; settings: 24 hours
# Method: as §3, §4
# [19] = system: A. baumannii KCTC 2508; experiment: Antibiofilm activity, Crystal violet staining; type: cell-based, Acinetobacter baumannii; settings: 24 hours
# Method: as §3, §4
# [20] = system: Acinetobacter baumannii KCTC 2508; experiment: Low vacuum scanning electron microscopy (membrane-disrupting property); type: cell-based; settings: peptide at MIC concentration, 30 minutes at 37° C.
# Method: To specifically determine the degree of antimicrobial activity of the synthesized peptides of the present invention, the influence of mother peptide LL37 and homologous peptides LL37-1, LL37-2, LL37-3 and LL37-4 on bacteria membrane, i.e., membrane-disrupting property, was determined by low vacuum scanning electron microscopy.
# Specifically, Acinetobacter baumannii KCTC 2508 cells were cultured to a mid-log phase in MHB medium, and then diluted to a cell concentration of 2×10^7 cells/ml in physiological saline containing 10% MHB medium. […] After that, by using 2.5% glutaraldehyde, the bacterial cells were fixed for 30 minutes at room temperature and then for 12 hours at 4° C. After carrying out washing with buffer, the cells were fixed again with […] and dehydrated in stepwise manner by using ethanol. After the dehydration, platinum coating was carried out and the cells were observed by low vacuum scanning electron microscopy.
compound,measurement,setting,value
"CC[C@H](C)[C@H](NC(=O)[C@H](CCCNC(=N)N)NC(=O)[C@H](CCC(N)=O)NC(=O)[C@@H](NC(=O)[C@@H](NC(=O)[C@H](CCCNC(=N)N)NC(=O)[C@H](CCCCN)NC(=O)[C@H](Cc1ccccc1)NC(=O)[C@H](CCCCN)NC(=O)[C@@H](N)CCCCN)[C@@H](C)CC)C(C)C)C(=O)N[C@@H](CCCCN)C(=O)N[C@@H](CC(=O)O)C(=O)N[C@@H](Cc1ccccc1)C(=O)N[C@@H](CC(C)C)C(=O)N[C@@H](CCCNC(=N)N)C(=O)N[C@@H](CC(N)=O)C(N)=O [LL37-2, KKFKRIVQRIKDFLRN-NH2] (H-KKFKRIVQRIKDFLRN-NH2)",Minimal inhibitory concentration,"[1]; S. aureus ATCC 25923, MHB, 18 hours at 37° C.",2 µM
same,Minimal inhibitory concentration,"[2]; L. monocytogenes KCTC 3710, MHB, 18 hours at 37° C.",16 µM
same,Minimal inhibitory concentration,"[3]; A. baumannii #10, tolerance to antibiotics",2 µM
same,Minimal inhibitory concentration,"[4]; A. baumannii #11, tolerance to antibiotics",2 µM
same,Minimal inhibitory concentration,"[5]; A. baumannii #12, tolerance to antibiotics",2 µM
same,Minimal inhibitory concentration,"[6]; A. baumannii #13, tolerance to antibiotics",2 µM
same,Minimal inhibitory concentration,"[7]; A. baumannii #19, tolerance to antibiotics",2 µM
same,Minimal inhibitory concentration,"[8]; A. baumannii #2, tolerance to antibiotics",2 µM
same,Minimal inhibitory concentration,"[9]; A. baumannii #3, tolerance to antibiotics",2 µM
same,Minimal inhibitory concentration,"[10]; A. baumannii #4, tolerance to antibiotics",2 µM
same,Minimal inhibitory concentration,"[11]; A. baumannii #5, tolerance to antibiotics",2 µM
same,Minimal inhibitory concentration,"[12]; A. baumannii #8, tolerance to antibiotics",2 µM
same,Minimal inhibitory concentration,"[13]; A. baumannii #9, tolerance to antibiotics",2 µM
same,Minimal inhibitory concentration of antimicrobial peptide,"[14]; A. baumannii KCTC 2508, Control (MIC values of Table 3, no added ions)",4 µM
same,Minimal inhibitory concentration,"[14]; A. baumannii KCTC 2508, MHB, 18 hours at 37° C.",4 µM
same,Minimal inhibitory concentration,"[15]; E. coli ATCC 25922, MHB, 18 hours at 37° C.",16 µM
same,Minimal inhibitory concentration,"[16]; P. aeruginosa ATCC 27853, MHB, 18 hours at 37° C.",8 µM
"CC[C@H](C)[C@H](NC(=O)[C@H](CCCNC(=N)N)NC(=O)[C@H](CCC(N)=O)NC(=O)[C@@H](NC(=O)[C@@H](NC(=O)[C@H](CCCNC(=N)N)NC(=O)[C@H](CCCCN)NC(=O)[C@H](Cc1ccccc1)NC(=O)[C@H](CCC(=O)O)NC(=O)[C@@H](N)CCCCN)[C@@H](C)CC)C(C)C)C(=O)N[C@@H](CCCCN)C(=O)N[C@@H](CCCCN)C(=O)N[C@@H](Cc1ccccc1)C(=O)N[C@@H](CC(C)C)C(=O)N[C@@H](CCCNC(=N)N)C(=O)N[C@@H](CC(N)=O)C(N)=O [LL37-3, KEFKRIVQRIKKFLRN-NH2] (H-KEFKRIVQRIKKFLRN-NH2; N-terminus assumed)",Minimal inhibitory concentration,"[1]; ATCC 25923, 18 h",4 µM
same,Minimal inhibitory concentration,"[2]; KCTC 3710, 18 h",64 µM
same,Minimal inhibitory concentration,[3]; #10,2 µM
same,Minimal inhibitory concentration,[4]; #11,2 µM
same,Minimal inhibitory concentration,[5]; #12,4 µM
same,Minimal inhibitory concentration,[6]; #13,2 µM
same,Minimal inhibitory concentration,[7]; #19,4 µM
same,Minimal inhibitory concentration,[8]; #2,4 µM
same,Minimal inhibitory concentration,[9]; #3,4 µM
same,Minimal inhibitory concentration,[10]; #4,4 µM
same,Minimal inhibitory concentration,[11]; #5,4 µM
same,Minimal inhibitory concentration,[12]; #8,2 µM
same,Minimal inhibitory concentration,[13]; #9,2 µM
same,Minimal inhibitory concentration,"[14]; KCTC 2508, 18 h",16 µM
same,Minimal inhibitory concentration,"[15]; ATCC 25922, 18 h",32 µM
same,Minimal inhibitory concentration,"[16]; ATCC 27853, 18 h",8 µM
same,Biofilm forming ability,[17]; peptide 2 μM,61%
same,Biofilm forming ability,[17]; peptide 4 μM,38%
same,Biofilm forming ability,[17]; peptide 8 μM,34%
same,Biofilm forming ability,[17]; peptide 16 μM,32%
same,Biofilm forming ability,[17]; peptide 32 μM,30%
same,Biofilm forming ability,[18]; peptide 2 μM,60%
same,Biofilm forming ability,[18]; peptide 4 μM,62%
same,Biofilm forming ability,[18]; peptide 8 μM,26%
same,Biofilm forming ability,[18]; peptide 16 μM,24%
same,Biofilm forming ability,[18]; peptide 32 μM,20%
same,Biofilm forming ability,[19]; peptide 2 μM,52%
same,Biofilm forming ability,[19]; peptide 4 μM,41%
same,Biofilm forming ability,[19]; peptide 8 μM,29%
same,Biofilm forming ability,[19]; peptide 16 μM,25%
same,Biofilm forming ability,[19]; peptide 32 μM,23%
same,membrane-disrupting property (scanning electron microscopy),[20],disruption of bacteria membrane
"CC[C@H](C)[C@H](NC(=O)[C@H](CCCNC(=N)N)NC(=O)[C@H](CCC(N)=O)NC(=O)[C@@H](NC(=O)[C@@H](NC(=O)[C@H](CCCNC(=N)N)NC(=O)[C@H](CCCCN)NC(=O)[C@H](Cc1ccccc1)NC(=O)[C@H](CCCCN)NC(=O)[C@@H](N)CCCCN)[C@@H](C)CC)C(C)C)C(=O)N[C@@H](CCCCN)C(=O)N[C@@H](CCCCN)C(=O)N[C@@H](Cc1ccccc1)C(=O)N[C@@H](CC(C)C)C(=O)N[C@@H](CCCNC(=N)N)C(=O)N[C@@H](CC(N)=O)C(N)=O [LL37-4, KKFKRIVQRIKKFLRN-NH2] (H-KKFKRIVQRIKKFLRN-NH2; N-terminus assumed)",Minimal inhibitory concentration,"[1]; ATCC 25923, 18 h",2 µM
same,Minimal inhibitory concentration,"[2]; KCTC 3710, 18 h",16 µM
same,Minimal inhibitory concentration,[3]; #10,2 µM
same,Minimal inhibitory concentration,[4]; #11,2 µM
same,Minimal inhibitory concentration,[5]; #12,2 µM
same,Minimal inhibitory concentration,[6]; #13,2 µM
same,Minimal inhibitory concentration,[7]; #19,4 µM
same,Minimal inhibitory concentration,[8]; #2,2 µM
same,Minimal inhibitory concentration,[9]; #3,2 µM
same,Minimal inhibitory concentration,[10]; #4,2 µM
same,Minimal inhibitory concentration,[11]; #5,2 µM
same,Minimal inhibitory concentration,[12]; #8,2 µM
same,Minimal inhibitory concentration,[13]; #9,2 µM
same,Minimal inhibitory concentration of antimicrobial peptide,[14]; KCTC 2508,4 µM
same,Minimal inhibitory concentration,"[14]; KCTC 2508, 18 h",4 µM
same,Minimal inhibitory concentration,"[15]; ATCC 25922, 18 h",16 µM
same,Minimal inhibitory concentration,"[16]; ATCC 27853, 18 h",4 µM
same,Biofilm forming ability,[17]; peptide 2 μM,49%
same,Biofilm forming ability,[17]; peptide 4 μM,37%
same,Biofilm forming ability,[17]; peptide 8 μM,33%
same,Biofilm forming ability,[17]; peptide 16 μM,33%
same,Biofilm forming ability,[17]; peptide 32 μM,30%
same,Biofilm forming ability,[18]; peptide 2 μM,74%
same,Biofilm forming ability,[18]; peptide 4 μM,59%
same,Biofilm forming ability,[18]; peptide 8 μM,49%
same,Biofilm forming ability,[18]; peptide 16 μM,22%
same,Biofilm forming ability,[18]; peptide 32 μM,20%
same,Biofilm forming ability,[19]; peptide 2 μM,48%
same,Biofilm forming ability,[19]; peptide 4 μM,32%
same,Biofilm forming ability,[19]; peptide 8 μM,28%
same,Biofilm forming ability,[19]; peptide 16 μM,23%
same,Biofilm forming ability,[19]; peptide 32 μM,22%
same,membrane disruption compared to LL37-1 and LL37-3 (scanning electron microscopy),[20],disrupted more
same,membrane-disrupting property (scanning electron microscopy),[20],disruption of bacteria membrane
